# Test results: PMC3433420 (PLoS ONE, 2012)
# Residues, ends and D or L forms follow the SMILES beside them.
# Key:
# Format in all cases: binding
# [1] = molecular target: T1, PLCG1-C SH2 domain (Homo sapiens, UniProt P19174); experiment: biochemical; conditions: high-confidence ErbB interactions
# T1 construct: The 6X His-tagged SH2 domain proteins used in the assay, PLCG1-C, SHC4, VAV2; thioredoxin; made in house; host or cells: E. coli BL21(DE3)pLysS
# T1 sequence (P19174 668-756 limits assumed): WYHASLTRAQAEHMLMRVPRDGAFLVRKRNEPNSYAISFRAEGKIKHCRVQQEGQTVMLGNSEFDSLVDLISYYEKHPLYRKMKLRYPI
# [2] = molecular target: T2, SH2 and PTB domains (Homo sapiens, UniProt P43405); experiment: In-house protein microarrays (with or without 5 mM DTT), protein named per line
# T2 construct: thioredoxin; made in house; host or cells: BL21(DE3)pLysS E. coli
# Method in brief: (§1)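 KD values come from rhodamine fluorescence of duplicate spots after subtraction of a thioredoxin control. Domains were printed at ~40 µM on aldehyde slides, blocked 1 h at room temperature in pH 7.8 HEPES/KCl buffer with 5 mM DTT and 1% BSA, then peptide-probed.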
# [3] = molecular target: T3, SH2 and PTB domains (Homo sapiens, UniProt P51451); experiment: as above; conditions: protein BLK
# T3 construct: thioredoxin; made in house; host or cells: BL21(DE3)pLysS E. coli
# T3 sequence (P51451 whole entry, the tested form may be a part): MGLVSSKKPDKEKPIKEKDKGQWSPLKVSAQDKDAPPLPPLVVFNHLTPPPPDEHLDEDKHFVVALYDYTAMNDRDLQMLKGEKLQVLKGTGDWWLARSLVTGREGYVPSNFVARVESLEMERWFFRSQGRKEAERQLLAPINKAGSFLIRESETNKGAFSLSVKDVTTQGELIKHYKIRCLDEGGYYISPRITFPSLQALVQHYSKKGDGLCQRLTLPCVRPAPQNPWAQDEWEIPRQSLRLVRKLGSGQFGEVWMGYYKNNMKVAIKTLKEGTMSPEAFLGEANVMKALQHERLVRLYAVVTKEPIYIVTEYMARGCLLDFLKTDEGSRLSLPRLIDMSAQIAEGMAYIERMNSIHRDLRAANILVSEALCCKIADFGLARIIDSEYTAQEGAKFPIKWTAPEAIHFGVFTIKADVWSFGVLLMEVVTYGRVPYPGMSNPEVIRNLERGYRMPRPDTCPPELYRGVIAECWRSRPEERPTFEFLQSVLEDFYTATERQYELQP
# Method in brief: as §1
# [4] = molecular target: T4, SH2 and PTB domains (Homo sapiens, UniProt Q92569); experiment: as above
# T4 construct: thioredoxin; made in house; host or cells: BL21(DE3)pLysS E. coli
# Method in brief: as §1
# [5] = molecular target: T5, SH2 and PTB domains (Homo sapiens, UniProt O00459); experiment: as above
# T5 construct: thioredoxin; made in house; host or cells: BL21(DE3)pLysS E. coli
# T5 sequence (O00459 whole entry, the tested form may be a part): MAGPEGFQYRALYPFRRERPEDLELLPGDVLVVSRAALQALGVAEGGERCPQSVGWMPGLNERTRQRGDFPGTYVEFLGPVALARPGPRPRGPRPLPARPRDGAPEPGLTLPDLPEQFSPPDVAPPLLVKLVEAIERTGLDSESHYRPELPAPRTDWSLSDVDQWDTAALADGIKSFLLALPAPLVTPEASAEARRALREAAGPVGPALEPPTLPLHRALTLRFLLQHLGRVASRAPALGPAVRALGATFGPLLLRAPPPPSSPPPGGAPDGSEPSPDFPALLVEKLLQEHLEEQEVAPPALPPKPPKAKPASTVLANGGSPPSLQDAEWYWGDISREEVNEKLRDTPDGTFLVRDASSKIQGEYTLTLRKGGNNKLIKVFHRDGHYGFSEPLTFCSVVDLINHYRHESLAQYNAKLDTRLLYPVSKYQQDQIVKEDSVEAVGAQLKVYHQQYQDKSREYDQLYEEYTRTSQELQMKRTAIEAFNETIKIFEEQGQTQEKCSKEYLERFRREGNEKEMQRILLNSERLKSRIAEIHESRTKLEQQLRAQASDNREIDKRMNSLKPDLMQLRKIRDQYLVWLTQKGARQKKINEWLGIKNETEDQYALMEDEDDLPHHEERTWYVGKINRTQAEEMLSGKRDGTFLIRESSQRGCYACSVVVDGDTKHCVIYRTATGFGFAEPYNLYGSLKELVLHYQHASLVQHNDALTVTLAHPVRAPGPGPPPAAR
# Method in brief: as §1
# [6] = protein SYK-N, PM assay replicate # 39336, array fabrication # 39329
# [7] = protein SYK-NC, PM assay replicate # 39336, array fabrication # 39329
# [8] = PM assay replicate # 39337, array fabrication # 39329
# [9] = protein PIK3R3-NC, PM assay replicate # 39337, array fabrication # 39329
# [10] = protein SYK-NC, PM assay replicate # 39337, array fabrication # 39329
# [11] = PM assay replicate # 39307, array fabrication # 39286
# [12] = PM assay replicate # 39351, array fabrication # 39336
# [13] = PM assay replicate # 39352, array fabrication # 39336
# [14] = protein SYK-NC, PM assay replicate # 39307, array fabrication # 39286
# [15] = protein SYK-NC, PM assay replicate # 39351, array fabrication # 39336
# [16] = protein SYK-NC, PM assay replicate # 39352, array fabrication # 39336
compound,measurement,setting,value
CC(C)C[C@H](NC(=O)[C@H](CC(N)=O)NC(=O)[C@@H](N)CC(=O)O)C(=O)N[C@@H](Cc1ccc(O)cc1)C(=O)N[C@@H](Cc1ccc(OP(=O)(O)O)cc1)C(=O)N[C@@H](Cc1c[nH]c2ccccc12)C(=O)N[C@@H](CC(=O)O)C(=O)N[C@@H](CCC(N)=O)C(=O)N[C@@H](CC(=O)O)C(=O)N1CCC[C@H]1C(=O)N1CCC[C@H]1C(=O)N[C@@H](CCC(=O)O)C(=O)N[C@@H](CC(=O)O)C(=O)O [ErbB2 1222 13-mer] (HELM PEPTIDE1{D.N.L.Y.[O=C([C@H](Cc1ccc(OP(=O)(O)O)cc1)N[*:1])[*:2]].W.D.Q.D.P.P.E.D}$$$$V2.0),Kd,"[1]; Protein PLCG1-C, FP saturation binding, mean over replicate hits",780 nM
CC(C)C[C@H](NC(=O)[C@@H]1CCCN1)C(=O)N[C@@H](CCC(N)=O)C(=O)N[C@@H](CCCNC(=N)N)C(=O)N[C@@H](Cc1ccc(OP(=O)(O)O)cc1)C(=O)N[C@@H](CO)C(=O)N[C@@H](CCC(=O)O)C(=O)N[C@@H](CC(=O)O)C(=O)N1CCC[C@H]1C(=O)N[C@H](C(=O)N[C@H](C(=O)N1CCC[C@H]1C(=O)N[C@@H](CC(=O)O)C(=O)O)C(C)C)[C@@H](C)O [ErbB2 pY1112] (HELM PEPTIDE1{P.L.Q.R.[O=C([C@H](Cc1ccc(OP(=O)(O)O)cc1)N[*:1])[*:2]].S.E.D.P.T.V.P.D}$$$$V2.0),Kd,"[2]; protein SYK-N, PM assay replicate # 39331, array fabrication # 39329",3620 nM
same,Kd,[2]; [6],14580 nM
same,Kd,"[2]; protein SYK-NC, PM assay replicate # 39331, array fabrication # 39329",890 nM
same,Kd,[2]; [7],800 nM
CC(C)C[C@H](NC(=O)[C@@H]1CCCN1C(=O)[C@H](C)NC(=O)[C@@H](NC(=O)[C@H](Cc1ccc(OP(=O)(O)O)cc1)NC(=O)CNC(=O)[C@H](CC(=O)O)NC(=O)[C@@H](NC(=O)[C@@H](N)CCC(=O)O)[C@@H](C)O)C(C)C)C(=O)N[C@H](C(=O)N[C@@H](CS)C(=O)N[C@@H](CO)C(=O)N[C@@H](CC(=O)O)C(=O)O)[C@@H](C)O [ErbB2 pY1127],Kd,"[3]; PM assay replicate # 39336, array fabrication # 39329",3200 nM
same,Kd,[3]; [8],460 nM
same,Kd,"[3]; PM assay replicate # 39603, array fabrication # 39392",2000 nM
same,Kd,"[4]; protein PIK3R3-C, PM assay replicate # 39336, array fabrication # 39329",1210 nM
same,Kd,"[4]; protein PIK3R3-C, PM assay replicate # 39337, array fabrication # 39329",2040 nM
same,Kd,"[4]; protein PIK3R3-N, PM assay replicate # 39336, array fabrication # 39329",6.98 nM
same,Kd,"[4]; protein PIK3R3-N, PM assay replicate # 39337, array fabrication # 39329",75.8 nM
same,Kd,"[4]; protein PIK3R3-NC, PM assay replicate # 39336, array fabrication # 39329",100 nM
same,Kd,[4]; [9],15.1 nM
same,Kd,"[4]; protein PIK3R3-NC, PM assay replicate # 39603, array fabrication # 39392",50 nM
same,Kd,"[5]; protein PIK3R2-N, PM assay replicate # 39336, array fabrication # 39329",40 nM
same,Kd,"[5]; protein PIK3R2-N, PM assay replicate # 39337, array fabrication # 39329",150 nM
same,Kd,"[2]; protein SYK-C, PM assay replicate # 39336, array fabrication # 39329",2390 nM
same,Kd,"[2]; protein SYK-C, PM assay replicate # 39337, array fabrication # 39329",1920 nM
same,Kd,[2]; [6],2330 nM
same,Kd,"[2]; protein SYK-N, PM assay replicate # 39337, array fabrication # 39329",3210 nM
same,Kd,[2]; [7],1300 nM
same,Kd,[2]; [10],960 nM
CSCC[C@H](NC(=O)[C@H](Cc1ccc(OP(=O)(O)O)cc1)NC(=O)CNC(=O)[C@H](CCC(=O)O)NC(=O)[C@H](CCC(=O)O)NC(=O)[C@H](CC(=O)O)NC(=O)[C@H](CC(C)C)NC(=O)[C@H](CCC(=O)O)NC(=O)CNC(=O)[C@H](CCCNC(=N)N)NC(=O)[C@@H]1CCCN1)C(=O)N[C@H](C(=O)N1CCC[C@H]1C(=O)N[C@@H](CCSC)C(=O)N[C@@H](CCCNC(=N)N)C(=O)N[C@@H](CC(=O)O)C(=O)N[C@@H](CCCCN)C(=O)N[C@@H](CC(=O)O)C(=O)O)[C@@H](C)O [ErbB4 1150 18-mer] (HELM PEPTIDE1{P.R.G.E.L.D.E.E.G.[O=C([C@H](Cc1ccc(OP(=O)(O)O)cc1)N[*:1])[*:2]].M.T.P.M.R.D.K.D}$$$$V2.0),Kd,"[1]; protein PLCG1-C, FP, mean of replicate hits",3100 nM
CCN(CC)c1ccc2c(-c3ccc(C(=O)N[C@@H](CC(N)=O)C(=O)NCC(=O)N4CCC[C@H]4C(=O)N4CCC[C@H]4C(=O)N[C@@H](CCCCN)C(=O)N[C@@H](C)C(=O)N[C@@H](CCC(=O)O)C(=O)N[C@@H](CC(=O)O)C(=O)N[C@@H](CCC(=O)O)C(=O)N[C@@H](Cc4ccc(OP(=O)(O)O)cc4)C(=O)N[C@H](C(=O)N[C@@H](CC(N)=O)C(=O)N[C@@H](CCC(=O)O)C(=O)N4CCC[C@H]4C(=O)N[C@@H](CC(C)C)C(=O)N[C@@H](Cc4ccc(O)cc4)C(=O)N[C@@H](CC(C)C)C(=O)N[C@@H](CC(=O)O)C(=O)O)C(C)C)cc3C(=O)[O-])c3ccc(=[N+](CC)CC)cc-3oc2c1 [ErbB4 1202 (18-mer)] (HELM PEPTIDE1{[CCN(CC)c1ccc2c(-c3ccc(C(=O)[*:2])cc3C(=O)[O-])c3ccc(=[N+](CC)CC)cc-3oc2c1].N.G.P.P.K.A.E.D.E.[O=C([C@H](Cc1ccc(OP(=O)(O)O)cc1)N[*:1])[*:2]].V.N.E.P.L.Y.L.D}$$$$V2.0),Kd,[3]; [11],450 nM
same,Kd,[3]; [8],7840 nM
same,Kd,[3]; [12],2290 nM
same,Kd,[3]; [13],2390 nM
same,Kd,[4]; [9],1180 nM
same,Kd,"[4]; protein PIK3R3-NC, PM assay replicate # 39352, array fabrication # 39336",1720 nM
same,Kd,"[5]; protein PIK3R2-NC, PM assay replicate # 39337, array fabrication # 39329",650 nM
same,Kd,[2]; [14],950 nM
same,Kd,[2]; [10],1420 nM
same,Kd,[2]; [15],810 nM
same,Kd,[2]; [16],1150 nM
CC(C)C[C@H](NC(=O)[C@H](Cc1ccc(OP(=O)(O)O)cc1)NC(=O)[C@H](CC(C)C)NC(=O)[C@@H]1CCCN1C(=O)[C@H](CCC(=O)O)NC(=O)[C@H](CC(N)=O)NC(=O)[C@@H](NC(=O)[C@H](Cc1ccc(O)cc1)NC(=O)[C@H](CCC(=O)O)NC(=O)[C@H](CC(=O)O)NC(=O)[C@@H](N)CCC(=O)O)C(C)C)C(=O)N[C@@H](CC(N)=O)C(=O)N[C@H](C(=O)N[C@@H](Cc1ccccc1)C(=O)N[C@@H](C)C(=O)N[C@@H](CC(N)=O)C(=O)N[C@H](C(=O)N[C@@H](CC(=O)O)C(=O)O)[C@@H](C)O)[C@@H](C)O [ErbB4 1208 18-mer] (HELM PEPTIDE1{E.D.E.Y.V.N.E.P.L.[O=C([C@H](Cc1ccc(OP(=O)(O)O)cc1)N[*:1])[*:2]].L.N.T.F.A.N.T.D}$$$$V2.0),Kd,"[1]; protein PLCG1-C, mean of replicate hits",2070 nM
CC[C@H](C)[C@H](NC(=O)[C@H](CC(N)=O)NC(=O)[C@H](CC(N)=O)NC(=O)[C@H](CCCCN)NC(=O)[C@H](CC(C)C)NC(=O)[C@H](Cc1ccc(OP(=O)(O)O)cc1)NC(=O)[C@H](CCC(=O)O)NC(=O)[C@H](C)NC(=O)[C@H](CCCCN)NC(=O)CNC(=O)[C@H](CC(C)C)NC(=O)[C@@H](NC(=O)[C@H](CC(N)=O)NC(=O)[C@H](C)NC(=O)[C@@H](N)Cc1ccccc1)[C@@H](C)O)C(=O)N[C@@H](CC(C)C)C(=O)N[C@@H](CO)C(=O)N[C@@H](CC(=O)O)C(=O)O [ErbB4 pY1221 (18-mer)] (HELM PEPTIDE1{F.A.N.T.L.G.K.A.E.[O=C([C@H](Cc1ccc(OP(=O)(O)O)cc1)N[*:1])[*:2]].L.K.N.N.I.L.S.D}$$$$V2.0),Kd,[3]; [11],580 nM
same,Kd,[3]; [12],1150 nM
same,Kd,[3]; [13],1160 nM
same,Kd,"[4]; protein PIK3R3-NC, PM assay replicate # 39307, array fabrication # 39286",540 nM
same,Kd,"[5]; protein PIK3R2-NC, PM assay replicate # 39307, array fabrication # 39286",1340 nM
same,Kd,"[2]; protein SYK-N, PM assay replicate # 39307, array fabrication # 39286",9490 nM
same,Kd,"[2]; protein SYK-N, PM assay replicate # 39352, array fabrication # 39336",15600 nM
same,Kd,[2]; [14],290 nM
same,Kd,[2]; [15],810 nM
same,Kd,[2]; [16],1290 nM
